Measured values published in US9334264B2, “NAMPT inhibitors” (AbbVie Inc., priority 2012, dated 2016).

What was measured:
[1] = biological target: NAMPT (human, recombinant, C-terminally His-tagged) (Homo sapiens, UniProt P43490); experiment: Time-Resolved Fluorescence Resonance Energy Transfer (TR-FRET) Binding Assay of NAMPT; details: absence of substrates; 6.8 nM NAMPT, 200 nM probe, equilibrated 3 hours
Experimental: Determination of the utility of compounds having Formula (I) as binders to and inhibitors of NAMPT was performed using Time-Resolved Fluorescence Resonance Energy Transfer (TR-FRET) binding assays.
Time-Resolved Fluorescence Resonance Energy Transfer (TR-FRET) Binding Assay of NAMPT
Test compounds were serially diluted (typically 11 half log dilutions) in neat DMSO to 50× final concentrations prior to dilution with assay buffer (50 mM HEPES (NaOH), pH 7.5, 100 mM NaCl, 10 mM MgCl2, 1 mM DTT, 1% Glycerol) to 3× and 6% DMSO. Six μL were transferred to 384-well low-volume plates (Owens Corning #3673). To this, 12 μL of a 1.5× solution containing enzyme, probe and antibody were added. Final concentrations in the 18 μL reactions were 1× assay buffer, 2% DMSO, 6.8 nM NAMPT (human, recombinant, C-terminally His-tagged), 200 nM probe (a potent nicotinamide-competitive inhibitor conjugated to Oregon Green 488) and 1 nM Tb-anti-His antibody (Invitrogen #PV5895). Reactions were equilibrated at room temperature for 3 hours prior to reading on an Envision multi-label plate reader (Perkin Elmer; Ex=337 nm, Em=520 and 495 nm). Time-resolved FRET ratios (Em520/Em495) were normalized to controls, plotted as a function of compound concentration and fit with the four-parameter logistic equation to determine IC50s.

NAMPT = NAMPT (Homo sapiens, UniProt P43490); experiment: Time-Resolved Fluorescence Resonance Energy Transfer (TR-FRET) Binding Assay of NAMPT with PRPP; details: 200 μM PRPP and 2.5 mM ATP; 2 nM NAMPT, 2 nM probe, equilibrated 16 hours
Experimental: Time-Resolved Fluorescence Resonance Energy Transfer (TR-FRET) Binding Assay of NAMPT with PRPP
Compound handling and data processing were identical to the assay in the absence of substrates (above). Final concentrations were 1× assay buffer, 2% DMSO, 2 nM NAMPT, 2 nM probe, 1 nM Tb-anti-His antibody (Invitrogen #PV5895), 200 μM PRPP and 2.5 mM ATP. Reactions were equilibrated for 16 hours prior to measurement to allow for potential enzymatic modification of test compounds.

Chain of NAMPT (human, recombinant, C-terminally His-tagged) (P43490 whole entry): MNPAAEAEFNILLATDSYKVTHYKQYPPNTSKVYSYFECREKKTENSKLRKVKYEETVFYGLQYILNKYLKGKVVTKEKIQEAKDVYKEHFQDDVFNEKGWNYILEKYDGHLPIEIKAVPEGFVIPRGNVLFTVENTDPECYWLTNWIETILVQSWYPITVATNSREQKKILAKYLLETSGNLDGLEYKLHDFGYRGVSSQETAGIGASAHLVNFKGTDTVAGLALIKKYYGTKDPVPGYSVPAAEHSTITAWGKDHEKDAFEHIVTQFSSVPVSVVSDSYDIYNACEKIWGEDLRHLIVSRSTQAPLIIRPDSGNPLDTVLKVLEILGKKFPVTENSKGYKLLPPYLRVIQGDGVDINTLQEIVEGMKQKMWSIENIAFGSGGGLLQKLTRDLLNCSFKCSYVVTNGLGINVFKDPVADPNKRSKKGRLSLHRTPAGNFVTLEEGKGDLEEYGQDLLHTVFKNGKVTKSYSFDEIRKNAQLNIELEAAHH
Chain of NAMPT (P43490 whole entry): as above

IC50 [1] | IC50 (NAMPT) | SMILES
> 10000 nM | 60.6 nM | C=C[C@H](CO)NC(=O)N(Cc1ccc(C#N)cc1)c1ncc(C(=O)NCCCn2ccnc2)s1 [Example 148, 2-[(4-cyanobenzyl){[(2R)-1-hydroxybut-3-en-2-yl]carbamoyl}amino]-N-[3-(1H-imidazol-1-yl)propyl]-1,3-thiazole-5-carboxamide]
6800 nM | 171 nM | CCOC(=O)C(C)(C)CNC(=O)N(Cc1ccc(C#N)cc1)c1ncc(C(=O)NCCCn2ccnc2)s1 [Example 163, ethyl 3-{[(4-cyanobenzyl)(5-{[3-(1H-imidazol-1-yl)propyl]carbamoyl}-1,3-thiazol-2-yl)carbamoyl]amino}-2,2-dimethylpropanoate]
340 nM | 99.1 nM | CCOC(=O)C(C)CNC(=O)N(Cc1ccc(C#N)cc1)c1ncc(C(=O)NCCCn2ccnc2)s1 (stereo not shown) [Example 165, ethyl 3-{[(4-cyanobenzyl)(5-{[3-(1H-imidazol-1-yl)propyl]carbamoyl}-1,3-thiazol-2-yl)carbamoyl]amino}-2-methylpropanoate]
> 10000 nM | 153 nM | N#Cc1ccc(CN(C(=O)NCCCC(=O)O)c2ncc(C(=O)NCCCn3ccnc3)s2)cc1 [Example 172, 4-{[(4-cyanobenzyl)(5-{[3-(1H-imidazol-1-yl)propyl]carbamoyl}-1,3-thiazol-2-yl)carbamoyl]amino}butanoic acid]
5280 nM | 1.78 nM | O=C(NCCCn1ccnc1)c1cnc(N(Cc2ccc(F)cc2)C(=O)NCC2CCCCO2)s1 (stereo not shown) [Example 81, 2-{(4-fluorobenzyl)[(tetrahydro-2H-pyran-2-ylmethyl)carbamoyl]amino}-N-[3-(1H-imidazol-1-yl)propyl]-1,3-thiazole-5-carboxamide]
55.5 nM | 0.541 nM | CC(C)CCN(C(=O)C(C)c1ccccc1)c1ncc(C(=O)NCCCn2ccnc2)s1 (stereo not shown) [Example 138, N-[3-(1H-imidazol-1-yl)propyl]-2-[(3-methylbutyl)(2-phenylpropanoyl)amino]-1,3-thiazole-5-carboxamide]
> 10000 nM | 22.3 nM | N#Cc1ccc(CN(C(=O)NCCC(N)=O)c2ncc(C(=O)NCCCn3ccnc3)s2)cc1 [Example 140, 2-{[(3-amino-3-oxopropyl)carbamoyl](4-cyanobenzyl)amino}-N-[3-(1H-imidazol-1-yl)propyl]-1,3-thiazole-5-carboxamide]
334 nM | 0.714 nM | CC(C)CCN(C(=O)CC1CCOC1)c1ncc(C(=O)NCCCn2ccnc2)s1 (stereo not shown) [Example 174, N-[3-(1H-imidazol-1-yl)propyl]-2-[(3-methylbutyl)(tetrahydrofuran-3-ylacetyl)amino]-1,3-thiazole-5-carboxamide]

The remaining lines, values behind:

SMILES | IC50 [1] | IC50 (NAMPT)
COCCC(=O)N(Cc1cocn1)c1ncc(C(=O)NCCCn2ccnc2)s1 [Example 95, N-[3-(1H-imidazol-1-yl)propyl]-2-[(3-methoxypropanoyl)(1,3-oxazol-4-ylmethyl)amino]-1,3-thiazole-5-carboxamide] | 3890 nM | 15.1 nM
CC(C)CCN(C(=O)[C@H](C)Oc1ccccc1)c1ncc(C(=O)NCCCn2ccnc2)s1 [Example 134, N-[3-(1H-imidazol-1-yl)propyl]-2-{(3-methylbutyl)[(2S)-2-phenoxypropanoyl]amino}-1,3-thiazole-5-carboxamide] | 200 nM | 0.617 nM
COCCC(=O)N(CCC1OCCO1)c1ncc(C(=O)NCCCn2ccnc2)s1 [Example 180, 2-{[2-(1,3-dioxolan-2-yl)ethyl](3-methoxypropanoyl)amino}-N-[3-(1H-imidazol-1-yl)propyl]-1,3-thiazole-5-carboxamide] | 7710 nM | 0.333 nM
O=C(NCCCn1ccnc1)c1cnc(N(CCCN2CCCCC2)Cc2ccc(F)cc2)s1 [Example 8, 2-{(4-fluorobenzyl)[3-(piperidin-1-yl)propyl]amino}-N-[3-(1H-imidazol-1-yl)propyl]-1,3-thiazole-5-carboxamide] | 3160 nM | 290 nM
COCCC(=O)N(CC(=O)N1CCCC1)c1ncc(C(=O)NCCCn2ccnc2)s1 [Example 202, N-[3-(1H-imidazol-1-yl)propyl]-2-{(3-methoxypropanoyl)[2-oxo-2-(pyrrolidin-1-yl)ethyl]amino}-1,3-thiazole-5-carboxamide] | 4990 nM | 0.405 nM
CCN(CC)CCN(C(=O)CCOC)c1ncc(C(=O)NCCCn2ccnc2)s1 [Example 191, 2-{[2-(diethylamino)ethyl](3-methoxypropanoyl)amino}-N-[3-(1H-imidazol-1-yl)propyl]-1,3-thiazole-5-carboxamide] | > 10000 nM | 0.265 nM
N#Cc1ccc(CN(C(=O)NCCCO)c2ncc(C(=O)NCCCn3ccnc3)s2)cc1 [Example 130, 2-{(4-cyanobenzyl)[(3-hydroxypropyl)carbamoyl]amino}-N-[3-(1H-imidazol-1-yl)propyl]-1,3-thiazole-5-carboxamide] | > 10000 nM | 1.11 nM
CC(C)(CO)CNC(=O)N(Cc1ccc(C#N)cc1)c1ncc(C(=O)NCCCn2ccnc2)s1 [Example 127, 2-{(4-cyanobenzyl)[(3-hydroxy-2,2-dimethylpropyl)carbamoyl]amino}-N-[3-(1H-imidazol-1-yl)propyl]-1,3-thiazole-5-carboxamide] | 3180 nM | 0.533 nM
O=C(NCCCn1ccnc1)c1cnc(N(Cc2ccc(F)cc2)C(=O)NCC2CCCO2)s1 (stereo not shown) [Example 79, 2-{(4-fluorobenzyl)[(tetrahydrofuran-2-ylmethyl)carbamoyl]amino}-N-[3-(1H-imidazol-1-yl)propyl]-1,3-thiazole-5-carboxamide] | 6580 nM | 2.77 nM
CC(=O)NCCNC(=O)N(Cc1ccc(C#N)cc1)c1ncc(C(=O)NCCCn2ccnc2)s1 [Example 145, 2-[{[2-(acetylamino)ethyl]carbamoyl}(4-cyanobenzyl)amino]-N-[3-(1H-imidazol-1-yl)propyl]-1,3-thiazole-5-carboxamide] | > 10000 nM | 107 nM
C=CCN1CCN(CC(=O)N(Cc2ccc(F)cc2)c2ncc(C(=O)NCCCn3ccnc3)s2)CC1 [Example 37, 2-[(4-fluorobenzyl){[4-(prop-2-en-1-yl)piperazin-1-yl]acetyl}amino]-N-[3-(1H-imidazol-1-yl)propyl]-1,3-thiazole-5-carboxamide] | 4810 nM | 0.531 nM
O=C(NCCCn1ccnc1)c1cnc(N(Cc2ccc(F)cc2)C(=O)N2CC(O)C2)s1 [Example 66, 2-{(4-fluorobenzyl)[(3-hydroxyazetidin-1-yl)carbonyl]amino}-N-[3-(1H-imidazol-1-yl)propyl]-1,3-thiazole-5-carboxamide] | > 10000 nM | 2.42 nM
O=C(NCCCn1ccnc1)c1cnc(N(Cc2ccc(F)cc2)C(=O)CN2CCN3CCCC3C2)s1 (stereo not shown) [Example 33, 2-[(4-fluorobenzyl)(hexahydropyrrolo[1,2-a]pyrazin-2(1H)-ylacetyl)amino]-N-[3-(1H-imidazol-1-yl)propyl]-1,3-thiazole-5-carboxamide] | 8950 nM | 1.22 nM
CC(C)C(=O)NCCNC(=O)N(Cc1ccc(C#N)cc1)c1ncc(C(=O)NCCCn2ccnc2)s1 [Example 147, 2-[(4-cyanobenzyl)({2-[(2-methylpropanoyl)amino]ethyl}carbamoyl)amino]-N-[3-(1H-imidazol-1-yl)propyl]-1,3-thiazole-5-carboxamide] | > 10000 nM | 71.9 nM
CC(C)CCN(C(=O)COc1ccccc1)c1ncc(C(=O)NCCCn2ccnc2)s1 [Example 136, N-[3-(1H-imidazol-1-yl)propyl]-2-[(3-methylbutyl)(phenoxyacetyl)amino]-1,3-thiazole-5-carboxamide] | 24.4 nM | 0.174 nM
COCCC(=O)N(CC1CCC(=O)N1)c1ncc(C(=O)NCCCn2ccnc2)s1 (stereo not shown) [Example 194, N-[3-(1H-imidazol-1-yl)propyl]-2-{(3-methoxypropanoyl)[(5-oxopyrrolidin-2-yl)methyl]amino}-1,3-thiazole-5-carboxamide] | 7250 nM | 1.12 nM
CC(C)CCN(C(=O)CC1CCOCC1)c1ncc(C(=O)NCCCn2ccnc2)s1 [Example 154, N-[3-(1H-imidazol-1-yl)propyl]-2-[(3-methylbutyl)(tetrahydro-2H-pyran-4-ylacetyl)amino]-1,3-thiazole-5-carboxamide] | 230 nM | 0.518 nM
O=C(NCCCn1ccnc1)c1cnc(N(Cc2ccc(F)cc2)C(=O)NCC2COCCO2)s1 (stereo not shown) [Example 88, 2-{[(1,4-dioxan-2-ylmethyl)carbamoyl](4-fluorobenzyl)amino}-N-[3-(1H-imidazol-1-yl)propyl]-1,3-thiazole-5-carboxamide] | > 10000 nM | 0.602 nM
